Measured values from PubChem BioAssay AID1963836 (Molecular Pharmacology Branch, DTP, NCI, 2024).
Values joined by “and” are separate entries in the source; they are usually repeats but may differ in a detail not shown here. Identical values can stand only once.

System: 857933-349-R-J2-PDC complex spheroid viability
Experiment: Anticancer human tumor 857933-349-R-J2-PDC patient-derived colon adenocarcinoma cell line growth inhibition [POLQ]
Conditions: for viability, T/C: stronger effect = lower value
Procedure: Multicellular complex tumor spheroid response to Polymerase (POL) inhibitors (novobiocin, ART-558, RP6685) in combination with a variety of drugs and investigational agents in selected tumor cell lines
The POL inhibitors (novobiocin, ART-558, and RP6685) were evaluated both individually and in combination with standard of care and investigational anticancer small molecules within a complex spheroid model of solid tumors. . Complex spheroids include a stromal component modeled by human endothelial cells (HUVEC) and fibroblasts modeled by human mesenchymal stem cells (MSCs). The concentration ranges selected for each drug and investigational agent were based upon clinically achievable concentrations if the clinical Cmax of the agent was known.
Compounds. The drugs and investigational agents: novobiocin (NSC847541), ART-558 (NSC835418), RP-6685 (NSC848927), peposertib (NSC802822), ceralasertib (NSC780249), elimusertib (NSC800525), camonsertib (NSC841442), AZD-1390 (NSC803789), olaparib (NSC753686), talazoparib (NSC767125), rucaparib (NSC756644), sotorasib (NSC818433), MRTX-1133 (NSC836407), SN-38 (NSC673596), topotecan (NSC609699), epotoside (NSC141540), doxorubicin (NSC123127), gemcitabine (NSC613327), 5-fluorouracil (NSC19893), paclitaxel (NSC125973), vemurafenib (NSC761431), MSA-2 (NSC828583), SN-011 (NSC837082), adavosertib (NSC754352), prexasertib (NSC758257), carboplatin (NSC241240) and oxaliplatin (NSC266046), were obtained from the National Cancer Institute (NCI) Developmental Therapeutics Program Chemical Repository (21). The FDA-approved anticancer drug set is available from the Developmental Therapeutics Program at https://dtp.cancer.gov/organization/dscb/obtaining/. […] The stock solutions were prepared in dimethyl sulfoxide (DMSO, Sigma-Aldrich, St. Louis, MO, cat. D2650), except for the platinum compounds which were prepared in saline (Quality Biological, Gaithersburg, MD, cat. 114-055-101), at 800-fold the tested concentration and stored at -70 degrees C prior to their use. All drugs and investigational agents were tested over a range starting from a high concentration at or near the clinical Cmax and decreasing in half-log increments. If the clinical Cmax for an agent had not been determined, the highest concentration tested was 10 microM, except for SN-38, which was tested at a high concentration of 1 microM.
Cell Culture. All cells were maintained in an incubator at 37 degrees C and 5% CO2 with 95% humidity. The PDC lines were cultured according to standard operating procedures established by the NCI PDMR (https://pdmr.cancer.gov). Table 3 of the manuscript, lists the cell lines along with the number of the three cell types plated to form the mct-spheroids and media for tumor cell growth. After thawing, all PDC lines, except 997537-175-T-J1-PDC and 415267-285-R-J2-PDC, were cultured in Matrigel-coated flasks prepared with a working solution of 1X Ham's F-12 nutrient mix, without supplementation (Thermo Fisher Scientific, cat. 11765054), 100 U/mL penicillin-streptomycin (Thermo Fisher Scientific, cat. 15140122), and 2.5% Matrigel (Corning Inc., Corning, NY, cat. 354248) for the first three passages. The two PDC lines 997537-175-T-J1-PDC and 415267-285-R-J2-PDC were cultured on uncoated flasks. The 857933-349-R-J2-PDC line was cultured in 6C/Colon 1B media containing advanced DMEM/F-12 (Thermo Fisher Scientific, cat. 12634028), 10 mM HEPES (Thermo Fisher Scientific, cat. 15630080), 1X GlutaMAX supplement (Thermo Fisher Scientific, cat. 35050061), 0.1 mg/mL primocin (InvivoGen, San Diego, CA, cat. ant-pm-2), 10% defined fetal bovine serum, heat inactivated (HyClone Laboratories Inc., Logan, UT, cat. SH30070.03HI), 50% L-WRN conditioned media (ATCC, cat. CRL-3276), 1.25 mM N-Acetyl-L-cysteine (Sigma-Aldrich, cat. A9165), 10 mM nicotinamide (Sigma-Aldrich, cat. N0636), 1X B-27 supplement (Thermo Fisher Scientific, cat. 17504044), 1X N-2 supplement (Thermo Fisher Scientific, cat. […]
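Also: spheroids exposed to compounds for seven days before readout.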

## COc1ccc([C@@H](O)c2cc(-c3ncnc4cc(N5CCOCC5)ccc34)c(F)cc2Cl)nn1 + Cc1cccc(N(C)C(=O)C2C(O)CCN2c2nc(C)cc(C(F)(F)F)c2C#N)c1
Curve of first compound, second compound 0.0316 µM
  IC50: > 10 µM
Curve of first compound, second compound 0.1 µM
  IC50: > 10 µM
Curve of first compound, second compound 0.316 µM
  IC50: > 10 µM
Curve of first compound, second compound 1 µM
  IC50: > 10 µM
Curve of first compound, second compound 3.16 µM
  IC50: 8.54 µM
Curve of first compound, second compound 10 µM
  IC50: > 10 µM
Second compound 0.0316 µM, first compound 0.0316 µM
  viability, T/C: 118%
Second compound 0.0316 µM, first compound 0.1 µM
  viability, T/C: 90.8%
Second compound 0.0316 µM, first compound 0.316 µM
  viability, T/C: 88.6%
Second compound 0.0316 µM, first compound 1 µM
  viability, T/C: 73.4%
Second compound 0.0316 µM, first compound 3.16 µM
  viability, T/C: 71.6%
Second compound 0.0316 µM, first compound 10 µM
  viability, T/C: 64.2%
Second compound 0.1 µM, first compound 0.0316 µM
  viability, T/C: 91.8%
Second compound 0.1 µM, first compound 0.1 µM
  viability, T/C: 114%
Second compound 0.1 µM, first compound 0.316 µM
  viability, T/C: 91.1%
Second compound 0.1 µM, first compound 1 µM
  viability, T/C: 79%
Second compound 0.1 µM, first compound 3.16 µM
  viability, T/C: 72.8%
Second compound 0.1 µM, first compound 10 µM
  viability, T/C: 57.7%
Second compound 0.316 µM, first compound 0.0316 µM
  viability, T/C: 110%
Second compound 0.316 µM, first compound 0.1 µM
  viability, T/C: 116%
Second compound 0.316 µM, first compound 0.316 µM
  viability, T/C: 83.6%
Second compound 0.316 µM, first compound 1 µM
  viability, T/C: 88.8%
Second compound 0.316 µM, first compound 3.16 µM
  viability, T/C: 93.7%
Second compound 0.316 µM, first compound 10 µM
  viability, T/C: 62.8%
Second compound 1 µM, first compound 0.0316 µM
  viability, T/C: 91.9%
Second compound 1 µM, first compound 0.1 µM
  viability, T/C: 97.3%
Second compound 1 µM, first compound 0.316 µM
  viability, T/C: 119%
Second compound 1 µM, first compound 1 µM
  viability, T/C: 63.8%
Second compound 1 µM, first compound 3.16 µM
  viability, T/C: 91.6%
Second compound 1 µM, first compound 10 µM
  viability, T/C: 56.8%
Second compound 3.16 µM, first compound 0.0316 µM
  viability, T/C: 87.1%
Second compound 3.16 µM, first compound 0.1 µM
  viability, T/C: 87.4%
Second compound 3.16 µM, first compound 0.316 µM
  viability, T/C: 95.5%
Second compound 3.16 µM, first compound 1 µM
  viability, T/C: 71.5%
Second compound 3.16 µM, first compound 3.16 µM
  viability, T/C: 85.6%
Second compound 3.16 µM, first compound 10 µM
  viability, T/C: 44.4%
Second compound 10 µM, first compound 0.0316 µM
  viability, T/C: 97.9%
Second compound 10 µM, first compound 0.1 µM
  viability, T/C: 97.5%
Second compound 10 µM, first compound 0.316 µM
  viability, T/C: 76.3%
Second compound 10 µM, first compound 1 µM
  viability, T/C: 61.6%
Second compound 10 µM, first compound 3.16 µM
  viability, T/C: 71.9%
Second compound 10 µM, first compound 10 µM
  viability, T/C: 49.2%

## C=CC(=O)N1CCN(c2nc(=O)n(-c3c(C)ccnc3C(C)C)c3nc(-c4c(O)cccc4F)c(F)cc23)C(C)C1 (stereo unspecified)
Compound 0.0316 µM
  viability, T/C: 82% and 96.3% and 96.5%
Compound 0.1 µM
  viability, T/C: 103% and 96.2% and 101%
Compound 0.316 µM
  viability, T/C: 97.5% and 113% and 80.8%
Compound 1 µM
  viability, T/C: 101% and 99.1% and 91.3%
Compound 3.16 µM
  viability, T/C: 94.3% and 103% and 92.1%
Compound 10 µM
  viability, T/C: 117% and 103% and 94.6%
Curve of compound
  IC50: > 10 µM

## COc1cc(C2c3cc4c(cc3C(OC3OC5COC(C)OC5C(O)C3O)C3COC(=O)C23)OCO4)cc(OC)c1O (stereo unspecified)
Compound 0.0316 µM
  viability, T/C: 74.7% and 90.5% and 74.8%
Compound 0.1 µM
  viability, T/C: 74% and 67.4% and 84.9%
Compound 0.316 µM
  viability, T/C: 51.1% and 65.9% and 54.1%
Compound 1 µM
  viability, T/C: 60% and 59.9% and 55.7%
Compound 3.16 µM
  viability, T/C: 38.2% and 33.4% and 32.9%
Compound 10 µM
  viability, T/C: 24.6% and 24.7% and 27.6%
Curve of compound
  IC50: 1.16 µM and 1.19 µM and 0.955 µM
